Test results taken from patent publication US11123338B2, “C-met modulator pharmaceutical compositions” (Exelixis, Inc., priority 2010, dated 2021).

Key:
[1] = Moisture uptake / hygroscopicity (moisture vapor isotherm); assay type: physicochemical; settings: for Hygroscopicity (remark in words): salt screen summary table
Experimental: Moisture sorption isotherms were collected in a VTI SGA-100 Symmetric Vapor Analyzer using approximately 10 mg of sample. The sample was dried at 60° C. until the loss rate of less than or equal to 0.0005 weight percent per minute was obtained for 10 minutes. […] Equilibration at each RH was reached when the rate of less than or equal to 0.0003 weight percent per minute for 35 minutes was achieved, or at a maximum of 600 minutes.

[2] = Solid-state stability on exposure to high humidity and high temperature; assay type: physicochemical
[3] = Water solubility of free base and salts from the salt screen; settings: for Solubility (remark in words): salt screen
Experimental: The water solubility of the various salts was determined using 10 mg solids per mL water.

[4] = Storage stability under controlled temperature / relative humidity; assay type: physicochemical
[5] = Thermal stability by DSC/TGA; assay type: physicochemical
Experimental: The sample (about 10-30 mg) was placed in a previously tared platinum pan. The weight of the sample was measured accurately and recorded to a thousand of a milligram. The furnace was purged with nitrogen gas at 100 mL/min. Data were collected between room temperature and 300° C. at 10° C./min heating rate.
The sample (about 2-6 mg) was weighed in an aluminum pan, accurately recorded to a hundredth of a milligram, and transferred to the DSC. The instrument was purged with nitrogen gas at 50 mL/min. Data were collected between room temperature and 300° C. at a 10° C./min heating rate.

[6] = water, thermodynamic from solid
[7] = water solubility, 10 mg solids per mL water

For `Cl` [Chloride], the “Hygroscopicity (remark in words)” value [1] was “Crystalline but Hygroscopic; possible” and the “Moisture sensitivity (phase behaviour on exposure)” value ([2]; high humidity (75 percent RH) and high temperature (40° C.)) was “changing phase”.
With `COc1cc2nccc(Oc3ccc(NC(=O)C4(C(=O)Nc5ccc(F)cc5)CC4)cc3)c2cc1OC` [Free base, N-[4-[(6,7-Dimethoxy-4-quinolinyl)oxy]phenyl]-N′-(4-fluorophenyl)-1,1-cyclopropanedicarboxamide] the “Solubility (remark in words)” value ([3]; water solubility) was “very low solubility” and the solubility [3, 6] was under 0.001 mg/mL.
In the case of `COc1cc2nccc(Oc3ccc(NC(=O)C4(C(=O)Nc5ccc(F)cc5)CC4)cc3)c2cc1OC.O=C(O)C[C@@H](O)C(=O)O` [L-Malate, cyclopropane-1,1-dicarboxylic acid [4-(6,7-dimethoxy-quinoline-4-yloxy)-phenyl]-amide (4-fluoro-phenyl)-amide, (L) malate salt], the “Solubility (remark in words)” value ([3]; water solubility, listed as L-malate salt, malate salt) is reported as “sufficient solubility”, the solubility [3, 6] is reported as 0.059 mg/mL and the “Change in assay, purity, moisture, and dissolution” value ([4]; 25° C./60 percent relative humidity (RH)) is reported as “no change”. For the same compound, the “Change in assay, purity, moisture, and dissolution” value ([4]; 40° C./60 percent RH) was “no change”, the “Chemical/physical stability (remark in words)” value ([4]; salt screen summary table) was “chemical/physical stability” and the “Amount of water taken up” value ([1]; at 90 percent RH) was “about 0.60 weight percent”. For the same compound, the “Hygroscopicity (remark in words)” value [1] was “Crystalline; non-Hygroscopic with no”, the “Solid state phase and degree of crystallinity after exposure” value ([2]; 75 percent RH at 40° C. for 1 week) was “remained unchanged” and the “Stable up to (DSC/TGA)” value [5] was “up to 185 °C”.
With `O=C(O)[C@H](O)[C@@H](O)C(=O)O` [L-Tartrate] the “Hygroscopicity (remark in words)” value [1] was “Hygroscopic”.
With Phosphate the solubility [3, 7] was 0.026 mg/mL, the “Weight gain due to absorption of H2O” value ([1]; highest among the salts tested) was 8% and the “Hygroscopicity (remark in words)” value [1] was “Crystalline but Hygroscopic”.
For Tosylate, the solubility [3, 7] was 0.007 mg/mL and the “Solubility (remark in words)” value ([3]; water solubility) was “Crystalline salt, low solubility”.
